According to patent US4318916A, “Antibiotic PS-5 and derivatives having β-lactamase inhibitory activity and production thereof” (Sanraku-Ocean Co., Ltd., priority 1977, dated 1982):
Like-named read-outs stand apart in the source and are kept apart here.

Legend:
Proteus vulgaris P-5 [1] = test: Potentiation disc assay with penicillin G (Table 9); format: cell-based; settings: for Inhibition zone With pen. G: 50 μg/ml penicillin G in agar
Procedure: (§1) (A) Ten milliliters of molten nutrient agar containing 50 μg/ml of penicillin G or cephaloridine, 0.8% of Kyokuto Nutrient Broth Powder and 1.0% of Difco Bacto-Agar (pH 7.0) were seeded with the beta-lactam-resistant, beta-lactamase-producing microorganisms indicated in Tables 9 and 10, and poured in a 9-cm Petri dish to provide the bio-assay agar plate. On this assay plate, 8-mm pulp discs containing 25 μl each of antibiotic PS-5 solutions at the indicated concentrations were placed and incubated at 35° C. for 18 hours before reading the inhibition zones. The control assay plate was similarly prepared without penicillin G nor cephaloridine. As reference antibiotics, penicillin G, ampicillin, oxacillin and cefazolin were disc-assayed under the same conditions.

Citrobacter freundii E-9 [2] = test: as above; format: cell-based; settings: for Inhibition zone With pen. G: 50 μg/ml penicillin G in agar
Procedure: as §1

Enterobacter sp. E-8 = test: as above; format: cell-based; settings: for Inhibition zone With pen. G: 50 μg/ml penicillin G in agar
Procedure: as §1

Serratia marcescens S-18 = test: as above; format: cell-based; settings: for Inhibition zone With pen. G: 50 μg/ml penicillin G in agar
Procedure: as §1

Proteus sp. P-22 [3] = test: as above; format: cell-based; settings: for Inhibition zone With pen. G: 50 μg/ml penicillin G in agar
Procedure: as §1

[4] = pH and heat stability of antibiotic PS-5 in aqueous solution; format: physicochemical; settings: for remaining at 0.25 h: water, pH 9, at least 15 min of heating at 60° C., aqueous solution, around neutral to weakly alkaline pH below pH 9
[5] = test system: Staphylococcus aureus Smith; test: In vivo activity of trityl ester in infected mice
Procedure: The in vivo activity of the tritylation product of the antibiotic PS-5 was measured in mice intraperitoneally infected with 5×10^3 cells/mouse of Staphylococcus aureus Smith. The trityl ester of the antibiotic PS-5 was subcutaneously injected just after infection.

Proteus vulgaris P-5 [6] = test: Potentiation disc assay of trityl ester (Table 14); format: cell-based; settings: for Halo of inhibition Cephaloridine added: 50 μg/ml cephaloridine in base agar
Procedure: (§2) (A) Assay Petri dishes (9 cm in diameter) containing resistant microorganisms were prepared by overlaying 10 ml of the molten nutrient agar seeded with beta-lactam-resistant (beta-lactamase-producing) microorganisms, on the solid base layer of nutrient agar (pH 7.0) (15 ml) containing 50 μg/ml of penicillin G or cephaloridine. As described before, the antibiotic solutions to be tested were applied in a 25 μl amount on an 8 mm pulp disc and placed on the said assay dishes. After incubation for 18 hours at 35° C., the inhibition halos were measured and compared with the results on the corresponding assay dished containing neither penicillin G nor cephaloridine. From the data in Table 14, it is very clear that the combination of the tritylation product of antibiotic PS-5 at a concentration below the lower limit of disc assay, with penicillin G or cephaloridine, at a concentration below said limit, produced a significant halo of inhibition. This fact clearly proves the potentiation of the antibiotic activity of penicillin G or cephaloridine with the tritylation product of antibiotic PS-5.

Citrobacter freundii E-9 [7] = test: Potentiation disc assay of trityl ester (Table 14); format: cell-based; settings: for Halo of inhibition Cephaloridine added: 50 μg/ml cephaloridine in base agar
Procedure: as §2

Proteus sp. P-22 [8] = test: Potentiation disc assay of trityl ester (Table 14); format: cell-based; settings: for Halo of inhibition Cephaloridine added: 50 μg/ml cephaloridine in base agar
Procedure: as §2

[9] = pH and heat stability of trityl ester of antibiotic PS-5; format: physicochemical; settings: for remaining at 0.5 h: phosphate buffer, read-out: Residual activity
Procedure: The trityl ester of antibiotic PS-5 was dissolved in one volume of methanol and then diluted with 9 volumes of distilled water as soon as possible to provide a solution of 125 CCU/ml. A tenth molar dipotassium phosphate solution was adjusted with 5 N phosphoric acid or 5 N sodium hydroxide to the indicated pH's in the range of 3-9.
To one milliliter each of the phosphate buffers, one milliliter each of the said solution of the trityl ester of antibiotic PS-5 was added and, if necessary, the pH value of the mixture was readjusted with phosphoric acid or sodium hydroxyde to the desired pH value. […]
The control solution (pH 7.0) was kept in an ice bath for the experimental period. The residual antibiotic activity was assayed by the routine disc assay method with Comamonas terrigena B-996 as the test microorganism.

CCC1C(=O)N2C(C(=O)O)=C(SCCNC(C)=O)CC12 (single isomer, unassigned) [Antibiotic PS-5]
zone of inhibition at 79.5 µg/mL (Proteus vulgaris P-5 [1]; P5, 18 h, PS-5 79.5 μg/ml, read-out: Inhibition zone Without pen. G): 0 mm
zone of inhibition at 100 µg/mL (Proteus vulgaris P-5 [1]; P5, 18 h, PS-5 100 μg/ml, read-out: Inhibition zone Without pen. G): 10.3 mm
zone of inhibition at 159 µg/mL (Proteus vulgaris P-5 [1]; P5, 18 h, PS-5 159 μg/ml, read-out: Inhibition zone Without pen. G): 14 mm
zone of inhibition at 318 µg/mL (Proteus vulgaris P-5 [1]; P5, 18 h, PS-5 318 μg/ml, read-out: Inhibition zone Without pen. G): 16 mm
Inhibition zone With pen. G (Proteus vulgaris P-5 [1]; PS-5 79.5 μg/ml): 18.3 mm
Inhibition zone With pen. G (Proteus vulgaris P-5 [1]; PS-5 100 μg/ml): 22.2 mm
Inhibition zone With pen. G (Proteus vulgaris P-5 [1]; PS-5 159 μg/ml): 24.5 mm
Inhibition zone With pen. G (Proteus vulgaris P-5 [1]; PS-5 318 μg/ml): 26.6 mm
zone of inhibition at 79.5 µg/mL (Citrobacter freundii E-9 [2]; E9, 18 h, PS-5 79.5 μg/ml, read-out: Inhibition zone Without pen. G): 10.4 mm
zone of inhibition at 100 µg/mL (Citrobacter freundii E-9 [2]; E9, 18 h, PS-5 100 μg/ml, read-out: Inhibition zone Without pen. G): 13.2 mm
zone of inhibition at 159 µg/mL (Citrobacter freundii E-9 [2]; E9, 18 h, PS-5 159 μg/ml, read-out: Inhibition zone Without pen. G): 17.2 mm
zone of inhibition at 318 µg/mL (Citrobacter freundii E-9 [2]; E9, 18 h, PS-5 318 μg/ml, read-out: Inhibition zone Without pen. G): 20.8 mm
Inhibition zone With pen. G (Citrobacter freundii E-9 [2]; PS-5 79.5 μg/ml): 13.1 mm
Inhibition zone With pen. G (Citrobacter freundii E-9 [2]; PS-5 100 μg/ml): 15.2 mm
Inhibition zone With pen. G (Citrobacter freundii E-9 [2]; PS-5 159 μg/ml): 19.2 mm
Inhibition zone With pen. G (Citrobacter freundii E-9 [2]; PS-5 318 μg/ml): 23.0 mm
Inhibition zone With pen. G (Enterobacter sp. E-8; PS-5 79.5 μg/ml): 11.0 mm
Inhibition zone With pen. G (Enterobacter sp. E-8; PS-5 100 μg/ml): 13.8 mm
Inhibition zone With pen. G (Enterobacter sp. E-8; PS-5 159 μg/ml): 17.5 mm
Inhibition zone With pen. G (Enterobacter sp. E-8; PS-5 318 μg/ml): 20.0 mm
zone of inhibition at 79.5 µg/mL (Enterobacter sp. E-8; SP.E8, 18 h, PS-5 79.5 μg/ml, read-out: Inhibition zone Without pen. G): 11 mm
zone of inhibition at 100 µg/mL (Enterobacter sp. E-8; SP.E8, 18 h, PS-5 100 μg/ml, read-out: Inhibition zone Without pen. G): 13.8 mm
zone of inhibition at 159 µg/mL (Enterobacter sp. E-8; SP.E8, 18 h, PS-5 159 μg/ml, read-out: Inhibition zone Without pen. G): 17.2 mm
zone of inhibition at 318 µg/mL (Enterobacter sp. E-8; SP.E8, 18 h, PS-5 318 μg/ml, read-out: Inhibition zone Without pen. G): 20.1 mm
Inhibition zone With pen. G (Serratia marcescens S-18; PS-5 79.5 μg/ml): 13.8 mm
Inhibition zone With pen. G (Serratia marcescens S-18; PS-5 100 μg/ml): 16.1 mm
Inhibition zone With pen. G (Serratia marcescens S-18; PS-5 159 μg/ml): 22.0 mm
Inhibition zone With pen. G (Serratia marcescens S-18; PS-5 318 μg/ml): 22.1 mm
zone of inhibition at 79.5 µg/mL (Serratia marcescens S-18; S18, 18 h, PS-5 79.5 μg/ml, read-out: Inhibition zone Without pen. G): 0 mm
zone of inhibition at 100 µg/mL (Serratia marcescens S-18; S18, 18 h, PS-5 100 μg/ml, read-out: Inhibition zone Without pen. G): 13 mm
zone of inhibition at 159 µg/mL (Serratia marcescens S-18; S18, 18 h, PS-5 159 μg/ml, read-out: Inhibition zone Without pen. G): 17.8 mm
zone of inhibition at 318 µg/mL (Serratia marcescens S-18; S18, 18 h, PS-5 318 μg/ml, read-out: Inhibition zone Without pen. G): 21.3 mm
zone of inhibition at 79.5 µg/mL (Proteus sp. P-22 [3]; 18 h, PS-5 79.5 μg/ml, read-out: Inhibition zone Without pen. G): 0 mm
zone of inhibition at 100 µg/mL (Proteus sp. P-22 [3]; 18 h, PS-5 100 μg/ml, read-out: Inhibition zone Without pen. G): 0 mm
zone of inhibition at 159 µg/mL (Proteus sp. P-22 [3]; 18 h, PS-5 159 μg/ml, read-out: Inhibition zone Without pen. G): 11.7 mm
zone of inhibition at 318 µg/mL (Proteus sp. P-22 [3]; 18 h, PS-5 318 μg/ml, read-out: Inhibition zone Without pen. G): 13.6 mm
Inhibition zone With pen. G (Proteus sp. P-22 [3]; PS-5 79.5 μg/ml): 12.8 mm
Inhibition zone With pen. G (Proteus sp. P-22 [3]; PS-5 100 μg/ml): 13.8 mm
Inhibition zone With pen. G (Proteus sp. P-22 [3]; PS-5 159 μg/ml): 18.2 mm
Inhibition zone With pen. G (Proteus sp. P-22 [3]; PS-5 318 μg/ml): 21.4 mm
remaining at 5 min ([4]; pH 3, pH 3.0 for 5 minutes at -17° C., read-out: Initial antibiotic activity still detected): ≥ 30%
remaining at 0.25 h ([4]; read-out: Antibiotic activity remaining): ≥ 50%
remaining at 0.25 h ([4]; usual value, read-out: Antibiotic activity remaining, usually): > 70%

CCC1C(=O)N2C(C(=O)OC(c3ccccc3)(c3ccccc3)c3ccccc3)=C(SCCNC(C)=O)CC12 (single isomer, unassigned) [Trityl PS-5]
50% curative dose ([5]; male ddy mice, Staphylococcus aureus Smith, subcutaneous, in Comamonas-cephaloridine units): 27,540 CCU/kg
Therapeutic effect in infected mice ([5]; mice infected with a pathogenic Gram-positive bacteria): marked therapeutic effect
ED50 ([5]; sc, male ddy mice infected i.p. with 5×10^3 cells/mouse Staphylococcus aureus Smith, subcutaneously injected just after infection, read-out: 50% curative dose): 2.55 mg/kg
zone of inhibition at 42 µg/mL (Proteus vulgaris P-5 [6]; P5, 18 h, Trityl PS-5 42 μg/ml, penicillin G series, read-out: Halo of inhibition Control): 0 mm
zone of inhibition at 50 µg/mL (Proteus vulgaris P-5 [6]; P5, 18 h, Trityl PS-5 50 μg/ml, cephaloridine series, read-out: Halo of inhibition Control): 0 mm
zone of inhibition at 100 µg/mL (Proteus vulgaris P-5 [6]; P5, 18 h, Trityl PS-5 100 μg/ml, cephaloridine series, read-out: Halo of inhibition Control): 11 mm
Halo of inhibition Penicillin G added (Proteus vulgaris P-5 [6]; Trityl PS-5 42 μg/ml, 50 μg/ml penicillin G in base agar): 27.0 mm
Halo of inhibition Cephaloridine added (Proteus vulgaris P-5 [6]; Trityl PS-5 50 μg/ml): 15.0 mm
Halo of inhibition Cephaloridine added (Proteus vulgaris P-5 [6]; Trityl PS-5 100 μg/ml): 18.0 mm
zone of inhibition at 50 µg/mL (Citrobacter freundii E-9 [7]; E9, 18 h, Trityl PS-5 50 μg/ml, read-out: Halo of inhibition Control): 13 mm
zone of inhibition at 100 µg/mL (Citrobacter freundii E-9 [7]; E9, 18 h, Trityl PS-5 100 μg/ml, read-out: Halo of inhibition Control): 16 mm
Halo of inhibition Cephaloridine added (Citrobacter freundii E-9 [7]; Trityl PS-5 50 μg/ml): 15.5 mm
Halo of inhibition Cephaloridine added (Citrobacter freundii E-9 [7]; Trityl PS-5 100 μg/ml): 18.0 mm
zone of inhibition at 50 µg/mL (Proteus sp. P-22 [8]; 18 h, Trityl PS-5 50 μg/ml, read-out: Halo of inhibition Control): 0 mm
zone of inhibition at 100 µg/mL (Proteus sp. P-22 [8]; 18 h, Trityl PS-5 100 μg/ml, read-out: Halo of inhibition Control): 0 mm
Halo of inhibition Cephaloridine added (Proteus sp. P-22 [8]; Trityl PS-5 50 μg/ml): 11.5 mm
Halo of inhibition Cephaloridine added (Proteus sp. P-22 [8]; Trityl PS-5 100 μg/ml): 13.5 mm
Loss of activity ([9]; aqueous solution, pH 7.5 for 90 minutes at 60° C.): no substantial loss of activity
remaining at 0.5 h ([9]; pH 3.0, 60° C. for 30 minutes, percent of control): 0%
remaining at 0.5 h ([9]; pH 4.0, 60° C. for 30 minutes): 0%
remaining at 0.5 h ([9]; pH 5.0, 60° C. for 30 minutes): 6.5%
remaining at 0.5 h ([9]; pH 6.0, 60° C. for 30 minutes): 79%
remaining at 0.5 h ([9]; pH 7.0, 60° C. for 30 minutes): 100%
remaining at 0.5 h ([9]; pH 8.0, 60° C. for 30 minutes): 100%
remaining at 0.5 h ([9]; pH 9.0, 60° C. for 30 minutes): 100%
